Test results as given in PubChem BioAssay AID1963850 (Molecular Pharmacology Branch, DTP, NCI, 2024).

System: 192522-019-R-J2-PDC complex tumor spheroid viability
Test: Anticancer human tumor 192522-019-R-J2-PDC patient-derived colon adenocarcinoma cell line growth inhibition [POLQ]
Conditions: for IC50: curve of first compound; for viability, T/C: stronger effect = lower value
Method in brief: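 Three-cell-type spheroids modelling solid tumor plus stroma served as the readout system; POL inhibitors were tested individually and in combination, concentration ranges set by clinical Cmax where known.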

[1] = second compound 0.0316 µM, first compound 0.0316 µM
[2] = second compound 0.0316 µM, first compound 0.1 µM
[3] = second compound 0.0316 µM, first compound 0.316 µM
[4] = second compound 0.0316 µM, first compound 1 µM
[5] = second compound 0.0316 µM, first compound 3.16 µM
[6] = second compound 0.0316 µM, first compound 10 µM
[7] = second compound 0.1 µM, first compound 0.0316 µM
[8] = second compound 0.1 µM, first compound 0.1 µM
[9] = second compound 0.1 µM, first compound 0.316 µM
[10] = second compound 0.1 µM, first compound 1 µM
[11] = second compound 0.1 µM, first compound 3.16 µM
[12] = second compound 0.1 µM, first compound 10 µM
[13] = second compound 0.316 µM, first compound 0.0316 µM
[14] = second compound 0.316 µM, first compound 0.1 µM
[15] = second compound 0.316 µM, first compound 0.316 µM
[16] = second compound 0.316 µM, first compound 1 µM
[17] = second compound 0.316 µM, first compound 3.16 µM
[18] = second compound 0.316 µM, first compound 10 µM
[19] = second compound 1 µM, first compound 0.0316 µM
[20] = second compound 1 µM, first compound 0.1 µM
[21] = second compound 1 µM, first compound 0.316 µM
[22] = second compound 1 µM, first compound 1 µM
[23] = second compound 1 µM, first compound 3.16 µM
[24] = second compound 1 µM, first compound 10 µM
[25] = second compound 3.16 µM, first compound 0.0316 µM
[26] = second compound 3.16 µM, first compound 0.1 µM
[27] = second compound 3.16 µM, first compound 0.316 µM
[28] = second compound 3.16 µM, first compound 1 µM
[29] = second compound 3.16 µM, first compound 3.16 µM
[30] = second compound 3.16 µM, first compound 10 µM
[31] = second compound 10 µM, first compound 0.0316 µM
[32] = second compound 10 µM, first compound 0.1 µM
[33] = second compound 10 µM, first compound 0.316 µM
[34] = second compound 10 µM, first compound 1 µM
[35] = second compound 10 µM, first compound 3.16 µM
[36] = second compound 10 µM, first compound 10 µM
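Also: spheroids exposed to drugs for seven days before reading.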
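For viability, T/C in this document: 100% = DMSO vehicle control viability in luminescence.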

## CC1COCCN1c1cc(C2(O)CC3CCC(C2)O3)c2cnn(-c3ccn[nH]3)c2n1 (stereo unspecified) + Cc1cccc(N(C)C(=O)C2C(O)CCN2c2nc(C)cc(C(F)(F)F)c2C#N)c1
Second compound 0.0316 µM
  IC50: 0.252 µM
Second compound 0.1 µM
  IC50: 0.256 µM
Second compound 0.316 µM
  IC50: 0.298 µM
Second compound 1 µM
  IC50: 0.467 µM
Second compound 3.16 µM
  IC50: 0.548 µM
Second compound 10 µM
  IC50: 0.291 µM
[1]
  viability, T/C: 117%
[2]
  viability, T/C: 70.1%
[3]
  viability, T/C: 47.8%
[4]
  viability, T/C: 29.2%
[5]
  viability, T/C: 43.7%
[6]
  viability, T/C: 46.3%
[7]
  viability, T/C: 95.8%
[8]
  viability, T/C: 73.1%
[9]
  viability, T/C: 42%
[10]
  viability, T/C: 35.9%
[11]
  viability, T/C: 37.3%
[12]
  viability, T/C: 64.2%
[13]
  viability, T/C: 101%
[14]
  viability, T/C: 82.9%
[15]
  viability, T/C: 49.2%
[16]
  viability, T/C: 33.8%
[17]
  viability, T/C: 43.5%
[18]
  viability, T/C: 52.3%
[19]
  viability, T/C: 94.1%
[20]
  viability, T/C: 85.5%
[21]
  viability, T/C: 54.8%
[22]
  viability, T/C: 34.5%
[23]
  viability, T/C: 38.6%
[24]
  viability, T/C: 54.3%
[25]
  viability, T/C: 98.3%
[26]
  viability, T/C: 89.3%
[27]
  viability, T/C: 55.1%
[28]
  viability, T/C: 32.1%
[29]
  viability, T/C: 46.8%
[30]
  viability, T/C: 56.8%
[31]
  viability, T/C: 102%
[32]
  viability, T/C: 78.1%
[33]
  viability, T/C: 48.8%
[34]
  viability, T/C: 32.8%
[35]
  viability, T/C: 51.7%
[36]
  viability, T/C: 50%

## C#Cc1c(F)ccc2cc(O)cc(-c3ncc4c(N5CC6CCC(C5)N6)nc(OCC56CCCN5CC(F)C6)nc4c3F)c12 (stereo unspecified) + COC1C(OC(N)=O)C(O)C(Oc2ccc3c(O)c(NC(=O)c4ccc(O)c(CC=C(C)C)c4)c(=O)oc3c2C)OC1(C)C
Second compound 0.0316 µM
  IC50: > 10 µM
Second compound 0.1 µM
  IC50: > 10 µM
Second compound 0.316 µM
  IC50: > 10 µM
Second compound 1 µM
  IC50: > 10 µM
Second compound 3.16 µM
  IC50: > 10 µM
Second compound 10 µM
  IC50: > 10 µM
[1]
  viability, T/C: 97.7%
[2]
  viability, T/C: 78.8%
[3]
  viability, T/C: 81.6%
[4]
  viability, T/C: 76.1%
[5]
  viability, T/C: 73.4%
[6]
  viability, T/C: 68%
[7]
  viability, T/C: 98%
[8]
  viability, T/C: 83.9%
[9]
  viability, T/C: 86.5%
[10]
  viability, T/C: 73.3%
[11]
  viability, T/C: 70.2%
[12]
  viability, T/C: 72.1%
[13]
  viability, T/C: 98.7%
[14]
  viability, T/C: 88.4%
[15]
  viability, T/C: 82.9%
[16]
  viability, T/C: 77.5%
[17]
  viability, T/C: 78.9%
[18]
  viability, T/C: 72.1%
[19]
  viability, T/C: 94.8%
[20]
  viability, T/C: 86.7%
[21]
  viability, T/C: 80.1%
[22]
  viability, T/C: 76.8%
[23]
  viability, T/C: 73.2%
[24]
  viability, T/C: 70.7%
[25]
  viability, T/C: 95.1%
[26]
  viability, T/C: 90.2%
[27]
  viability, T/C: 82.3%
[28]
  viability, T/C: 73.2%
[29]
  viability, T/C: 75.9%
[30]
  viability, T/C: 71.7%
[31]
  viability, T/C: 95.2%
[32]
  viability, T/C: 84.1%
[33]
  viability, T/C: 79.6%
[34]
  viability, T/C: 78.7%
[35]
  viability, T/C: 74%
[36]
  viability, T/C: 62.8%

## CNCc1ccc(-c2[nH]c3cc(F)cc4c3c2CCNC4=O)cc1 + Nc1ccc(C#CCN(C(=O)Cc2ncc(C(F)(F)F)cc2C(F)(F)F)c2ccc(F)cc2)nn1
Second compound 0.0316 µM
  IC50: > 10 µM
Second compound 0.1 µM
  IC50: > 10 µM
Second compound 0.316 µM
  IC50: > 10 µM
Second compound 1 µM
  IC50: > 10 µM
Second compound 3.16 µM
  IC50: > 10 µM
Second compound 10 µM
  IC50: > 10 µM
[1]
  viability, T/C: 103%
[2]
  viability, T/C: 106%
[3]
  viability, T/C: 102%
[4]
  viability, T/C: 113%
[5]
  viability, T/C: 122%
[6]
  viability, T/C: 111%
[7]
  viability, T/C: 105%
[8]
  viability, T/C: 98.7%
[9]
  viability, T/C: 110%
[10]
  viability, T/C: 102%
[11]
  viability, T/C: 104%
[12]
  viability, T/C: 105%
[13]
  viability, T/C: 107%
[14]
  viability, T/C: 106%
[15]
  viability, T/C: 96.5%
[16]
  viability, T/C: 103%
[17]
  viability, T/C: 106%
[18]
  viability, T/C: 107%
[19]
  viability, T/C: 119%
[20]
  viability, T/C: 100%
[21]
  viability, T/C: 105%
[22]
  viability, T/C: 104%
[23]
  viability, T/C: 111%
[24]
  viability, T/C: 107%
[25]
  viability, T/C: 103%
[26]
  viability, T/C: 108%
[27]
  viability, T/C: 95.3%
[28]
  viability, T/C: 104%
[29]
  viability, T/C: 110%
[30]
  viability, T/C: 101%
[31]
  viability, T/C: 108%
[32]
  viability, T/C: 101%
[33]
  viability, T/C: 105%
[34]
  viability, T/C: 102%
[35]
  viability, T/C: 110%
[36]
  viability, T/C: 106%
